Laboratory results taken from patent publication US20090053378A1, “Sweetener Compositions Having Enhanced Sweetness and Improved Temporal and/or Flavor Profiles” (THE COCA-COLA COMPANY, priority 2007, published 2009).
Blank lines part the entries; values can stand above or below the compound they belong to.

Key:
[1] = Sweetness enhancement tasting of 2-hydroxybenzoic acid derivatives in fructose solution; format: in vivo; set-up: key: NSE: No Significant Effect; details: 5% fructose, roughly neutral pH; 5-9 scale (5, 7.5, 9% fructose references)
Experimental: (§1) The hydroxybenzoic acid derivatives were tasted by themselves in water at a concentration of 3 mM prior to tasting with sucrose, glucose, or fructose to determine enhancement activities. After it was determined that the hydroxybenzoic acid derivatives themselves would contribute no sweetness, they were added to solutions with; 5% fructose, 9% glucose and 6% sucrose. These solutions were adjusted to roughly neutral pH using dilute NaOH solution. The sweetness of the fructose, glucose, and sucrose solutions were evaluated both without and with the hydroxybenzoic acid derivatives using independent sweetness intensity scales for sucrose, fructose, and glucose which were scaled according to references provided for each sweetener, Thus, for sucrose, sweetness references provided were 6, 8, and 10% sucrose and the sweetness intensities of unknown samples were scaled on this 6-10 scale. For fructose, 5, 7.5, and 9% fructose references were provided and the sweetness intensities of unknown samples were scaled on this 5-9 scale. For glucose, 9, 10.5, and 12% glucose references were provided and the sweetness intensities of unknown samples were scaled on this 9-12 scale.

[2] = Sweetness enhancement tasting of 2-hydroxybenzoic acid derivatives in sucrose solution; format: in vivo; set-up: key: NSE: No Significant Effect; details: 6% sucrose, roughly neutral pH; 6-10 scale (6, 8, 10% sucrose references)
Experimental: as §1

[3] = Sweetness enhancement tasting of 2-hydroxybenzoic acid derivatives in glucose solution; format: in vivo; set-up: key: NSE: No Significant Effect; details: 9% glucose, roughly neutral pH; 9-12 scale (9, 10.5, 12% glucose references)
Experimental: as §1

[4] = Rate of dissolution of rebaudioside A forms in water; format: physicochemical

Compound: COc1cccc(C(=O)O)c1O [compound 1]
- Fructose sweetness rating, without => with the hydroxybenzoic acid derivative [1]: NSE
- Sucrose sweetness rating, without => with the hydroxybenzoic acid derivative [2]: NSE
- Glucose sweetness rating, without => with the hydroxybenzoic acid derivative [3]: NSE

Compound: COc1ccc(C(=O)O)c(O)c1 [compound 2]
- Fructose sweetness rating, without => with the hydroxybenzoic acid derivative [1]: NSE
- Sucrose sweetness rating, without => with the hydroxybenzoic acid derivative [2]: NSE
- Glucose sweetness rating, without => with the hydroxybenzoic acid derivative [3]: NSE

Compound: COc1ccc(O)c(C(=O)O)c1 [compound 3]
- Fructose sweetness rating, without => with the hydroxybenzoic acid derivative [1]: NSE
- Sucrose sweetness rating, without => with the hydroxybenzoic acid derivative [2]: NSE
- Glucose sweetness rating, without => with the hydroxybenzoic acid derivative [3]: NSE

Compound: COc1cccc(O)c1C(=O)O [compound 4]
- Fructose sweetness rating, without => with the hydroxybenzoic acid derivative [1]: NSE
- Sucrose sweetness rating, without => with the hydroxybenzoic acid derivative [2]: NSE
- Glucose sweetness rating, without => with the hydroxybenzoic acid derivative [3]: NSE

Compound: O=C(O)c1c(O)cccc1O [compound 8]
- Sucrose sweetness rating, without => with the hydroxybenzoic acid derivative [2]: NSE

Compound: Cc1ccc(C(=O)O)c(O)c1 [compound 11]
- Fructose sweetness rating, without => with the hydroxybenzoic acid derivative [1]: NSE
- Sucrose sweetness rating, without => with the hydroxybenzoic acid derivative [2]: NSE
- Glucose sweetness rating, without => with the hydroxybenzoic acid derivative [3]: NSE

Compound: Cc1ccc(O)c(C(=O)O)c1 [compound 12]
- Fructose sweetness rating, without => with the hydroxybenzoic acid derivative [1]: NSE
- Sucrose sweetness rating, without => with the hydroxybenzoic acid derivative [2]: NSE
- Glucose sweetness rating, without => with the hydroxybenzoic acid derivative [3]: NSE

Compound: CCOc1ccc(C(=O)O)c(O)c1 [compound 14]
- Fructose sweetness rating, without => with the hydroxybenzoic acid derivative [1]: NSE
- Sucrose sweetness rating, without => with the hydroxybenzoic acid derivative [2]: NSE
- Glucose sweetness rating, without => with the hydroxybenzoic acid derivative [3]: NSE

Compound: O=C(O)c1cccc([N+](=O)[O-])c1O [compound 18]
- Fructose sweetness rating, without => with the hydroxybenzoic acid derivative [1]: NSE
- Sucrose sweetness rating, without => with the hydroxybenzoic acid derivative [2]: NSE
- Glucose sweetness rating, without => with the hydroxybenzoic acid derivative [3]: NSE

Compound: O=C(O)c1cc([N+](=O)[O-])ccc1O [compound 20]
- Fructose sweetness rating, without => with the hydroxybenzoic acid derivative [1]: NSE
- Sucrose sweetness rating, without => with the hydroxybenzoic acid derivative [2]: NSE

Compound: O=C(O)c1cc(F)ccc1O [compound 23]
- Fructose sweetness rating, without => with the hydroxybenzoic acid derivative [1]: NSE
- Sucrose sweetness rating, without => with the hydroxybenzoic acid derivative [2]: NSE
- Glucose sweetness rating, without => with the hydroxybenzoic acid derivative [3]: NSE

Compound: O=C(O)c1c(O)cccc1F [compound 24]
- Fructose sweetness rating, without => with the hydroxybenzoic acid derivative [1]: NSE
- Sucrose sweetness rating, without => with the hydroxybenzoic acid derivative [2]: NSE
- Glucose sweetness rating, without => with the hydroxybenzoic acid derivative [3]: NSE

Compound: Cc1c(O)ccc(C(=O)O)c1O [compound 25]
- Fructose sweetness rating, without => with the hydroxybenzoic acid derivative [1]: NSE
- Sucrose sweetness rating, without => with the hydroxybenzoic acid derivative [2]: NSE
- Glucose sweetness rating, without => with the hydroxybenzoic acid derivative [3]: NSE

Compound: O=C(O)c1ccc(O)c(O)c1O [compound 26]
- Fructose sweetness rating, without => with the hydroxybenzoic acid derivative [1]: NSE
- Sucrose sweetness rating, without => with the hydroxybenzoic acid derivative [2]: NSE
- Glucose sweetness rating, without => with the hydroxybenzoic acid derivative [3]: NSE

Compound: Nc1cc(C(=O)O)c(O)c(S(=O)(=O)O)c1 [compound 27]
- Fructose sweetness rating, without => with the hydroxybenzoic acid derivative [1]: NSE
- Sucrose sweetness rating, without => with the hydroxybenzoic acid derivative [2]: NSE
- Glucose sweetness rating, without => with the hydroxybenzoic acid derivative [3]: NSE

Compound: Nc1cccc(C(=O)O)c1O [compound 28]
- Fructose sweetness rating, without => with the hydroxybenzoic acid derivative [1]: NSE
- Sucrose sweetness rating, without => with the hydroxybenzoic acid derivative [2]: NSE
- Glucose sweetness rating, without => with the hydroxybenzoic acid derivative [3]: NSE

Compound: Nc1ccc(C(=O)O)c(O)c1 [compound 29]
- Fructose sweetness rating, without => with the hydroxybenzoic acid derivative [1]: NSE

Compound: Nc1ccc(O)c(C(=O)O)c1 [compound 30]
- Fructose sweetness rating, without => with the hydroxybenzoic acid derivative [1]: NSE
- Sucrose sweetness rating, without => with the hydroxybenzoic acid derivative [2]: NSE
- Glucose sweetness rating, without => with the hydroxybenzoic acid derivative [3]: NSE

Compound: Cc1cc(C)c(O)c(C(=O)O)c1 [compound 31]
- Fructose sweetness rating, without => with the hydroxybenzoic acid derivative [1]: NSE
- Sucrose sweetness rating, without => with the hydroxybenzoic acid derivative [2]: NSE
- Glucose sweetness rating, without => with the hydroxybenzoic acid derivative [3]: NSE

Compound: O=Cc1ccc(O)c(C(=O)O)c1 [compound 32]
- Fructose sweetness rating, without => with the hydroxybenzoic acid derivative [1]: NSE
- Sucrose sweetness rating, without => with the hydroxybenzoic acid derivative [2]: NSE
- Glucose sweetness rating, without => with the hydroxybenzoic acid derivative [3]: NSE

Compound: O=C(O)c1ccc(O)c(C(=O)O)c1 [compound 33]
- Fructose sweetness rating, without => with the hydroxybenzoic acid derivative [1]: NSE
- Sucrose sweetness rating, without => with the hydroxybenzoic acid derivative [2]: NSE
- Glucose sweetness rating, without => with the hydroxybenzoic acid derivative [3]: NSE

Compound: CCCOc1ccc(C(=O)O)c(O)c1 [compound 34]
- Fructose sweetness rating, without => with the hydroxybenzoic acid derivative [1]: NSE
- Sucrose sweetness rating, without => with the hydroxybenzoic acid derivative [2]: NSE
- Glucose sweetness rating, without => with the hydroxybenzoic acid derivative [3]: NSE

Compound: O=C(O)c1ccc(OCc2ccccc2)cc1O [compound 35]
- Fructose sweetness rating, without => with the hydroxybenzoic acid derivative [1]: NSE
- Sucrose sweetness rating, without => with the hydroxybenzoic acid derivative [2]: NSE
- Glucose sweetness rating, without => with the hydroxybenzoic acid derivative [3]: NSE

Compound: O=C(O)c1ccc(OCCCc2ccccc2)cc1O [compound 36]
- Fructose sweetness rating, without => with the hydroxybenzoic acid derivative [1]: NSE
- Sucrose sweetness rating, without => with the hydroxybenzoic acid derivative [2]: NSE
- Glucose sweetness rating, without => with the hydroxybenzoic acid derivative [3]: NSE

Compound: COC(=O)COc1ccc(C(=O)O)c(O)c1 [compound 37]
- Fructose sweetness rating, without => with the hydroxybenzoic acid derivative [1]: NSE
- Sucrose sweetness rating, without => with the hydroxybenzoic acid derivative [2]: NSE
- Glucose sweetness rating, without => with the hydroxybenzoic acid derivative [3]: NSE

Compound: O=C(O)COc1ccc(C(=O)O)c(O)c1 [compound 38]
- Fructose sweetness rating, without => with the hydroxybenzoic acid derivative [1]: NSE
- Sucrose sweetness rating, without => with the hydroxybenzoic acid derivative [2]: NSE
- Glucose sweetness rating, without => with the hydroxybenzoic acid derivative [3]: NSE

Compound: O=C(O)c1ccc(OCCO)cc1O [compound 39]
- Fructose sweetness rating, without => with the hydroxybenzoic acid derivative [1]: NSE
- Sucrose sweetness rating, without => with the hydroxybenzoic acid derivative [2]: NSE
- Glucose sweetness rating, without => with the hydroxybenzoic acid derivative [3]: NSE

Compound: O=C(O)c1ccc(OCCCCO)cc1O [compound 40]
- Fructose sweetness rating, without => with the hydroxybenzoic acid derivative [1]: NSE
- Sucrose sweetness rating, without => with the hydroxybenzoic acid derivative [2]: NSE
- Glucose sweetness rating, without => with the hydroxybenzoic acid derivative [3]: NSE

Compound: NC(=O)COc1ccc(C(=O)O)c(O)c1 [compound 41]
- Fructose sweetness rating, without => with the hydroxybenzoic acid derivative [1]: NSE
- Sucrose sweetness rating, without => with the hydroxybenzoic acid derivative [2]: NSE
- Glucose sweetness rating, without => with the hydroxybenzoic acid derivative [3]: NSE

- Rate of dissolution in H2O at 25° C. ([4]; in 60 minutes): Very low (<0.2%
Compound: rebaudioside A [Form 1]

- Rate of dissolution in H2O at 25° C. ([4]; in 5 minutes): Intermediate (<30%
Compound: rebaudioside A [Form 2]

- Rate of dissolution in H2O at 25° C. ([4]; in 5 minutes): High (>30%
Compound: rebaudioside A [Form 3]

- Rate of dissolution in H2O at 25° C. ([4]; in 5 minutes): High (>35.0%
Compound: rebaudioside A [Form 4]
